Results: patent publication EP4140986A1, “PYRAZINE COMPOUNDS FOR THE CONTROL OF INVERTEBRATE PESTS” (BASF SE, priority 2021, dated 2023)

Tests used:
Format in all cases: in vivo
[1] = system: Southern armyworm (Spodoptera eridania), 2nd instar larvae; experiment: Southern armyworm foliar spray test on Lima bean plants; conditions: 2nd instar larvae on sprayed Lima bean plants, 4 days after treatment
Description: The active compounds were formulated by a Tecan liquid handler in 100% cyclohexanone as a 10,000-ppm solution supplied in tubes. The 10,000-ppm solution was serially diluted in 100% cyclohexanone to make interim solutions. These served as stock solutions for which final dilutions were made by the Tecan in 50% acetone:50% water (v/v) into 10 or 20ml glass vials. A non-ionic surfactant (Kinetic®) was included in the solution at a volume of 0.01% (v/v). The vials were then inserted into an automated electrostatic sprayer equipped with an atomizing nozzle for application to plants/insects. Lima bean plants (variety Sieva) were grown 2 plants to a pot and selected for treatment at the 1st true leaf stage. Test solutions were sprayed onto the foliage by an auto-mated electrostatic plant sprayer equipped with an atomizing spray nozzle. The plants were dried in the sprayer fume hood and then removed from the sprayer. Each pot was placed into perforated plastic bags with a zip closure. Ten to 11 armyworm larvae were placed into the bag and the bags zipped closed. Test plants were maintained in a growth room at about 25°C and about 20-40% relative humidity for 4 days, avoiding direct exposure to fluorescent light (14:10 light:dark photoperiod) to prevent trapping of heat inside the bags. Mortality and reduced feeding were assessed 4 days after treatment, compared to untreated control plants.

[2] = system: green peach aphid (Myzus persicae); experiment: Green Peach Aphid systemic test, artificial diet in 96-well microtiter plates; conditions: 72 h, adult aphids on treated diet, 3 days, read-out: mortality in comparison with untreated controls
From the text: For evaluating control of green peach aphid (Myzus persicae) through systemic means, the test unit consisted of 96-well-microtiter plates containing liquid artificial diet under an artificial mem brane.
The compounds were formulated using a solution containing 75% v/v water and 25% v/v DMSO. Different concentrations of formulated compounds were pipetted into the aphid diet, using a custom built pipetter, at two replications.
After application, 5 - 8 adult aphids were placed on the artificial membrane inside the microtiter plate wells. The aphids were then allowed to suck on the treated aphid diet and incubated at about 23 ± 1°C and about 50 ± 5 % relative humidity for 3 days. Aphid mortality and fecundity was then visually assessed.

[3] = system: tobacco budworm (Heliothis virescens); experiment: Tobacco budworm test, insect diet with eggs in 96-well microtiter plates; conditions: 120 h, egg and larval mortality, 5 days, read-out: mortality in comparison with untreated controls
Description: For evaluating control of tobacco budworm (Heliothis virescens), the test unit consisted of 96-well-microtiter plates containing an insect diet and 15-25 H. virescens eggs.
The compounds were formulated using a solution containing 75% v/v water and 25% v/v DMSO. Different concentrations of formulated compounds were sprayed onto the insect diet at 10 µl using a custom-built micro atomizer, at two replications.
After application, microtiter plates were incubated at about 28 ± 1°C and about 80 ± 5 % relative humidity for 5 days. Egg and larval mortality was then visually assessed.

[4] = system: boll weevil (Anthonomus grandis); experiment: Boll weevil test, insect diet with eggs in 96-well microtiter plates; conditions: 120 h, egg and larval mortality, 5 days, read-out: mortality in comparison with untreated controls
Description: For evaluating control of boll weevil (Anthonomus grandis), the test unit consisted of 96-well-microtiter plates containing an insect diet and 5-10 A. grandis eggs.
The compounds were formulated using a solution containing 75% v/v water and 25% v/v DMSO. Different concentrations of formulated compounds were sprayed onto the insect diet at 5 µl, using a custom-built micro atomizer, at two replications.
After application, microtiter plates were incubated at about 25 ± 1°C and about 75 ± 5 % relative humidity for 5 days. Egg and larval mortality was then visually assessed.

[5] = system: yellow fever mosquito (Aedes aegypti); experiment: whole plant or invertebrate; conditions: 48 h, larval mortality, 2 days, read-out: mortality in comparison with untreated controls
Description: For evaluating control of yellow fever mosquito (Aedes aegypti) the test unit consisted of 96-well-microtiter plates containing 200µl of tap water per well and 5-15 freshly hatched A. aegypti larvae.
The active compounds were formulated using a solution containing 75% (v/v) water and 25% (v/v) DMSO. Different concentrations of formulated compounds or mixtures were sprayed onto the insect diet at 2.5µl, using a custom-built micro atomizer, at two replications.
After application, microtiter plates were incubated at 28 ± 1°C, 80 ± 5 % RH for 2 days. Larval mortality was then visually assessed.

Compound | mortality in comparison with untreated controls ([1]; 300 ppm) | mortality at 2500 ppm [2] [%] | mortality at 2500 ppm [3] [%] | mortality at 2500 ppm [4] [%] | mortality at 300 ppm ([1]; Spodoptera eridania, foliar, 96 h, read-out: mortality in comparison with untreated controls) [%] | mortality at 2500 ppm [5] [%]
CON=C(N)c1nccnc1C(C)N(CC1CC1)C(=O)c1cc(C(F)(F)F)cc(C(F)(F)F)c1 (stereo not drawn) [Compound I-4] | at least 75% | – | – | – | – | –
CON=C(C)c1nccnc1C(C)NC(=O)c1cc(C(F)(F)F)cc(C(F)(F)F)c1 (stereo not drawn) [Compound I-1, N-[1-[3-[N-methoxy-C-methyl-carbonimidoyl]pyrazin-2-yl]ethyl]-3,5-bis(trifluoromethyl)benzamide] | – | ≥ 75 | ≥ 75 | ≥ 75 | ≥ 75 | ≥ 75
